From patent US5922879A, “N-aminoalkyl-2-anthraquinonecarboxamides: new dopamine receptor subtype specific ligands” (Neurogen Corporation, priority 1997, dated 1999)
Counter-ions that a name gives are not always drawn.

What was measured:
D2 receptors = experiment: D2 receptor binding (displacement of 0.5 nM 3H-YM 09151-2); design: species or system African Green monkey; settings: pellets of COS cells with recombinant D2, nonspecific binding with 1 mM spiperone
Experimental: (§1) Assay for D2 and D3 Receptor Binding Activity
(§2) Pellets of COS cells containing recombinantly produced D2 or D3 receptors from African Green monkey were used for the assays. The sample is homogenized in 100 volumes (w/vol) of 0.05 M Tris HCl buffer at 4° C. and pH 7.4. The sample is then centrifuged at 30,000 ×g and resuspended and rehomogenized. The sample is then centrifuged as described and the final tissue sample is frozen until use. The tissue is resuspended 1:20 (wt/vol) in 0.05 M Tris HCl buffer containing 100 mM NaCl.
The binding characteristics of representative compounds of the invention for D2 and D3 receptor subtypes are shown in Table 2 for rat striatal homogenates.

D3 receptors = biological target: T1, D3 receptors (Chlorocebus aethiops, UniProt P52703); experiment: D3 receptor binding (displacement of 0.5 nM 3H-YM 09151-2); design: species or system African Green monkey; settings: pellets of COS cells with recombinant D3, nonspecific binding with 1 mM spiperone
T1 construct: expressed in transfected cells; host or cells: COS cells
T1 sequence (P52703 whole entry): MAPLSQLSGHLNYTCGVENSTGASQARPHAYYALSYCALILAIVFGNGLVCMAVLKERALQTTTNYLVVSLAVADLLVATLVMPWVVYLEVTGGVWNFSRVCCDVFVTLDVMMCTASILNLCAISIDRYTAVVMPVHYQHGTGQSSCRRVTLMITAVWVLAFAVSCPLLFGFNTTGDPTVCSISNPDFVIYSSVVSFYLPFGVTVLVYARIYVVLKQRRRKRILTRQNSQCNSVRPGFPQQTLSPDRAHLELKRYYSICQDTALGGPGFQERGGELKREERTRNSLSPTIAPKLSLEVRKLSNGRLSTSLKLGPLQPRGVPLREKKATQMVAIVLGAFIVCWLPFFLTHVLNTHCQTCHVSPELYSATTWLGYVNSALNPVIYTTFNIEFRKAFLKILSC
Experimental: as §1, §2
Incubations are carried out at 48° C. and contain 0.4 ml of tissue sample, 0.5 nM ^3 H-YM 09151-2 and the compound of interest in a total incubation of 1.0 ml. Nonspecific binding is defined as that binding found in the presence of […] spiperone; without further additions, nonspecific binding is less than 20% of total binding. The binding characteristics of representative compounds of the invention for D2 and D3 receptor subtypes are shown in Table 2 for rat striatal homogenates.

Molecule	Ki (D2 receptors) [nM]	Ki (D3 receptors) [nM]
N-(1-{4-[4(8-Quinolinyl)piperazin-1-yl]}butyl)-2-anthraquinonecarboxamide hydrochloride [Compound 6]	45	–
O=C(NCCCCN1CCN(c2cccc(Cl)c2Cl)CC1)c1ccc2c(c1)C(=O)c1ccccc1C2=O [Compound 1, N-(1-{4-[4-(2,3-Dichlorophenyl)piperazin-1-yl]}butyl)-2anthraquinonecarboxamide hydrochloride]	154	4
Cc1c(Cl)cccc1N1CCN(CCCCNC(=O)c2ccc3c(c2)C(=O)c2ccccc2C3=O)CC1 [Compound 4, N-(1-{4-[4-(2-Methyl-3-chlorophenyl)piperazin-1-yl]}butyl)-2-anthraquinonecarboxamide hydrochloride]	61	2
